pEC50: −log10 of the molar value. *1 amine or outer side, *2 acyl side, *3 side chain or, on linkers, in order; H or OH if unused. Where a SMILES comes first, the peptide text is derived from it. Side-chain parts run from the residue outwards. [ ]: non-standard residue; d: D form. The star is where a group is joined. γGlu = O=C(O)[C@H](CCC(=O)[*:2])N[*:1]; C14 diacid = O=C(O)CCCCCCCCCCCCC(=O)*; C12 diacid = O=C(O)CCCCCCCCCCC(=O)*; Pentanoyl = CCCCC(=O)*; AEEA = NCCOCCOCC(=O)O; Aib = CC(C)(N)C(=O)O
Columns and labels:
human CRF2a receptor = target: T1, human CRF2a receptor (Homo sapiens, UniProt Q13324); test: Activity at human CRF2a receptor, cAMP functional assay in TeloHEAC cells; assay type: cell-based; conditions: TeloHEAC cells stably expressing human CRF2a receptor, relative to urocortin 2 (100 nM = 100%)
T1 construct: expressed in transfected cells; host or cells: TeloHEAC cells
T1 sequence (Q13324 1-411): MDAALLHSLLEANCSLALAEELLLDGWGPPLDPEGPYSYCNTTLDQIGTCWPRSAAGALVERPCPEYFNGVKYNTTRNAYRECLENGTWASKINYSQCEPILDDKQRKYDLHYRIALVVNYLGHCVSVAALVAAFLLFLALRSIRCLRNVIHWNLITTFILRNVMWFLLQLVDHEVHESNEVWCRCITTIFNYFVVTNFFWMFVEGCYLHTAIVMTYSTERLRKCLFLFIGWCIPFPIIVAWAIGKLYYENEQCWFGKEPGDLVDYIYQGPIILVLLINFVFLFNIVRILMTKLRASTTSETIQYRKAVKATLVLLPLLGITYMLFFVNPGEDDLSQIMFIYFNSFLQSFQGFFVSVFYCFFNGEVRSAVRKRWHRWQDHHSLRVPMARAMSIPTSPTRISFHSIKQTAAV
Procedure, shortened: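 TeloHEAC cells stably expressing human CRF2a (10000 cells/well) were treated with 16-point 1:2 compound dilutions in HBSS/20 mM HEPES with IBMX for 30 min at 37° C. cAMP was read by HTRF (665/620 nm ratio). EC50 was the concentration giving 50% activation, with 100 nM urocortin 2 set as 100%.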

CFR1R receptor = target: T2, CFR1R receptor (Homo sapiens, UniProt P34998); test: Activity at anti-target CFR1R receptor, cAMP assay in CRF1R-overexpression CHO-K1 cells; assay type: cell-based; conditions: 100% = Sauvagine at 100 nM; for pEC50: cAMP
T2 construct: host or cells: CHO-K1 (clone 2)
T2 sequence (P34998 24-415): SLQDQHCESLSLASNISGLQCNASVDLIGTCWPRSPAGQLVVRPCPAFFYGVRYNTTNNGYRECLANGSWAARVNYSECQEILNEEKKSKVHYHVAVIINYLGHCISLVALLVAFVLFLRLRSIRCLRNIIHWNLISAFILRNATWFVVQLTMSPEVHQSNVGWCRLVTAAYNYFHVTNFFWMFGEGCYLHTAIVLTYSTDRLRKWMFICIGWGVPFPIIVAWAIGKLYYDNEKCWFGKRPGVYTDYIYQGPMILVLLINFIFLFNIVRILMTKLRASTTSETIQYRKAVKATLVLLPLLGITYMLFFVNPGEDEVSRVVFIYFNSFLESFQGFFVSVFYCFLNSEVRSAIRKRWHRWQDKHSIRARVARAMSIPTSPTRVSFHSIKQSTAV
Procedure, shortened: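 Uses frozen stocks of CHO-K1 clone 2 cells overexpressing human CRF1R, plated at 4000 cells/well final, with cAMP measured by the same protocol as the TeloHAEC line. Full-activation control: 100 nM Sauvagine.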

pEC50 (human CRF2a receptor)	Emax (% I) (CFR1R receptor)	pEC50 (CFR1R receptor)	SMILES
7.61	9 % I	< 6.60	CCCCC(=O)N[C@H](C(=O)N[C@@H](CC(C)C)C(=O)N[C@@H](CO)C(=O)N[C@@H](CC(C)C)C(=O)N[C@@H](CC(=O)O)C(=O)N[C@@H](C(=O)N1CCC[C@H]1C(=O)N[C@H](C(=O)N[C@@H](CCCCN)C(=O)N[C@@H](CC(C)C)C(=O)N[C@@H](CCCCNC(=O)COCCOCCNC(=O)COCCOCCNC(=O)CC[C@H](NC(=O)CC[C@H](NC(=O)CCCCCCCCCCCCC(=O)O)C(=O)O)C(=O)O)C(=O)N[C@@H](CCCCN)C(=O)N[C@H](C(=O)N[C@@H](CC(C)C)C(=O)N[C@@H](CC(C)C)C(=O)N[C@@H](CCC(=O)O)C(=O)N[C@@H](CCC(N)=O)C(=O)N[C@@H](CCC(=O)O)C(=O)N[C@@H](CCCCN)C(=O)N[C@@H](CCC(N)=O)C(=O)N[C@@H](CCCCN)C(=O)N[C@@H](CCCCN)C(=O)N[C@@H](CCC(N)=O)C(=O)N[C@@H](CCCNC(=N)N)C(=O)N[C@@H](CCC(=O)O)C(=O)N[C@@H](CCC(N)=O)C(=O)N[C@@H](C)C(=O)N[C@@H](CCC(=O)O)C(=O)N[C@H](C(=O)N[C@@H](CC(N)=O)C(=O)NC(C)(C)C(=O)N[C@@H](CCC(N)=O)C(=O)N[C@H](C(=O)N[C@@H](CC(C)C)C(=O)N[C@@H](C)C(=O)N[C@@H](CCC(N)=O)C(=O)N[C@H](C(N)=O)C(C)C)[C@@H](C)CC)[C@@H](C)O)[C@@H](C)CC)[C@@H](C)CC)C(C)C)C(C)C [compound 181] (Pentanoyl-VLSLD[dV]PIKLK([AEEA-AEEA-γGlu-γGlu-C14 diacid])KILLEQEKQKKQREQAETN[Aib]QILAQV-NH2)
8.73	1 % I	< 6.60	CC[C@H](C)[C@H](NC(C)=O)C(=O)N[C@H](C(=O)N[C@@H](CC(C)C)C(=O)N[C@@H](CO)C(=O)N[C@@H](CC(C)C)C(=O)N[C@@H](CC(=O)O)C(=O)N[C@@H](C(=O)N1CCC[C@H]1C(=O)N[C@H](C(=O)N[C@@H](CCCCN)C(=O)N[C@@H](CC(C)C)C(=O)N[C@@H](CCCCNC(=O)CC[C@H](NC(=O)CCCCCCCCCCC(=O)O)C(=O)O)C(=O)N[C@@H](CCCCN)C(=O)N[C@H](C(=O)N[C@@H](CC(C)C)C(=O)N[C@@H](CC(C)C)C(=O)N[C@@H](CCC(=O)O)C(=O)N[C@@H](CCC(N)=O)C(=O)N[C@@H](CCC(=O)O)C(=O)N[C@@H](CCCCN)C(=O)N[C@@H](CCC(N)=O)C(=O)N[C@@H](CCCCN)C(=O)N[C@@H](CCCCN)C(=O)N[C@@H](CCC(N)=O)C(=O)N[C@@H](CCCNC(=N)N)C(=O)N[C@@H](CCC(=O)O)C(=O)N[C@@H](CCC(N)=O)C(=O)N[C@@H](C)C(=O)N[C@@H](CCC(=O)O)C(=O)N[C@H](C(=O)N[C@@H](CC(N)=O)C(=O)NC(C)(C)C(=O)N[C@@H](CCC(N)=O)C(=O)N[C@H](C(=O)N[C@@H](CC(C)C)C(=O)N[C@@H](C)C(=O)N[C@@H](CCC(N)=O)C(=O)N[C@H](C(N)=O)C(C)C)[C@@H](C)CC)[C@@H](C)O)[C@@H](C)CC)[C@@H](C)CC)C(C)C)C(C)C [compound 182] (Ac-IVLSLD[dV]PIKLK([γGlu-C12 diacid])KILLEQEKQKKQREQAETN[Aib]QILAQV-NH2)

From US20260001928A1 (CORTERIA PHARMACEUTICALS, priority 2022, published 2026)
